Usually microsomal CLint stands for the rate of metabolic loss divided by the concentration. By EC50 is commonly meant the concentration giving half of the maximal effect. A high value points to weaker potency.

The nature of data set [1]: Microsomal stability (rat). In kind it is in vitro ADME. The note with it: rat liver microsomes 0.5 mg/mL; read-out: Microsomal stability (in vitro CLint), Rat. The procedure: (§1) The master solution was prepared as follows.
(§2) Two separate experiments were performed as follows:
(§3) With NADPH: 10 μL of 20 mg/mL liver microsomes and 40 μL of 10 mM NADPH were added to the incubations. The final concentrations of microsomes and NADPH were 0.5 mg/mL and 1 mM, respectively.
(§4) Without NADPH: 10 μL of 20 mg/mL liver microsomes and 40 μL of ultra-pure H2O were added to the incubations. The final concentration of microsomes was 0.5 mg/mL.
(§5) The reaction was started with the addition of 4 μL of 3, 10, 30 and 100 μM test compound solution or control compound solution at the final concentration of 0.03, 0.1, 0.3 and 1 μM and carried out at 37° C.
(§6) Aliquots of 50 μL were taken from the reaction solution at 0, 15, 30, 45 and 60 min. The reaction was stopped by the addition of 4 volumes of cold acetonitrile with IS (100 nM alprazolam, 200 nM labetalol, 200 nM caffeine and 2 μM ketoprofen). Samples were centrifuged at 3, 220 g for 40 minutes. Aliquot of 100 μL of the supernatant was mixed with 100 μL of ultra-pure H2O and then used for LC-MS/MS analysis. […]
(§7) Peak areas were determined from extracted ion chromatograms. The slope value, k, was determined by linear regression of the natural logarithm of the remaining percentage of the parent drug vs. incubation time curve.
(§8) The in vitro half-life (in vitro t1/2) was determined from the slope value: […]
For orientation: Microsomes from liver hold many membrane-bound enzymes, among them those of drug oxidation.

A short description of data set [2]: Microsomal stability (human). The conditions noted are these: human liver microsomes 0.5 mg/mL; read-out: Microsomal stability (in vitro CLint), Human. Type of data set: in vitro ADME. The protocol:
as §1, §2, §3, §4, §5, §6, §7, §8

Data set [3] is described as follows: Microsomal stability (dog). The note with it: dog liver microsomes 0.5 mg/mL; read-out: Microsomal stability (in vitro CLint), Dog. Type of data set: in vitro ADME. The procedure:
as §1, §2, §3, §4, §5, §6, §7, §8

Data set [4] can be described thus: Rat pharmacokinetic study (plasma). Type of data set: in vivo, male SD rats. The conditions noted are these: IV 1 mg/kg. The procedure:
The rat pharmacokinetics studies of exemplary compounds 03-3, 03-5, and 03-115 were conducted with male SD rats. These rats were typically about 6-8 weeks old, weighing 200 g to 300 g. Animals were fasted overnight and free access to food 4 hours after dosing. A required volume of vehicle was added to reach the target concentration of the test article and vehicle component to prepare for the dosing. The dosing vehicle was PEG400 or 30% PEG400 in saline for IV, or 0.5% methylcellulose in water for PO. For IV dosing, the animals were administered intravenously via tail vein. For PO dosing, the animals were administered via oral gavage. After dosing, blood sample was collected (˜0.2 mL per time point) through jugular vein or heart puncture. Blood of each sample was transferred into plastic micro centrifuge tubes containing EDTA-K2. Collection tubes with blood samples and anticoagulant were inverted several times for proper mixing of the tube contents and then placed on wet ice. The blood samples were centrifuged at 2000 g for 5 minutes at 4° C. to obtain plasma which was stored in a freezer at −75±15° C. prior to analysis. Samples were analyzed using LC-MS/MS. WinNonlin were used for pharmacokinetic calculations.

Data set [5] concerns the target T1, β1 adrenergic receptor (Homo sapiens, UniProt P08588).
T1 construct: expressed in transfected cells
Kind of data set: cAMP Gs dynamic HTRF assay, β1 expressing CHO cells. Type of data set: cell-based. The procedure:
(§9) cAMP homogeneous time-resolved fluorescence (HTRF). Compound efficacy was determined using the cAMP Gs dynamic HTRF assay (Cisbio, catalog #62AM4PEC) largely following the manufacturer's instructions, also detailed below.
(§10) Compound preparation. […] Standard serial dilution curves were 10-point, 5-fold dilutions starting from a highest concentration of 10 μM. […] Assay plates were centrifuged at 500×g for 10 seconds. Compounds and IBMX were prepared at 2× final dose to compensate for addition of cells.
(§11) Cell preparation. […] Cells were harvested using assay PBS, counted manually by hemocytometer or by an automated cell counter, pelleted by centrifugation (200×g, 5 minutes) and resuspended in 37° C. […]
(§12) HTRF reagent addition, reading and data analysis. […] Plates were centrifuged again at 500×g for 10 seconds, and HTRF was measured using a Tecan Spark plate reader at 50 flashes per well. […] Potency estimates (EC50) were derived from the four-parameter nonlinear regression of the concentration-effect curve and an estimate of relative efficacy was determined by comparing the magnitude of the test compound HTRF signal window (min-max dose) with the signal window of the full agonist control, isoproterenol.
(In general: Time-resolved FRET reads energy transfer from a long-lived donor to a nearby acceptor.)

Data set [6] deals with T2, β2 adrenergic receptor (Homo sapiens, UniProt P07550).
T2 construct: expressed in transfected cells
Kind of data set: cAMP Gs dynamic HTRF assay, β2 expressing CHO cells. In kind it is cell-based. The procedure:
as §9, §10, §11, §12

T1 sequence (P08588 whole entry): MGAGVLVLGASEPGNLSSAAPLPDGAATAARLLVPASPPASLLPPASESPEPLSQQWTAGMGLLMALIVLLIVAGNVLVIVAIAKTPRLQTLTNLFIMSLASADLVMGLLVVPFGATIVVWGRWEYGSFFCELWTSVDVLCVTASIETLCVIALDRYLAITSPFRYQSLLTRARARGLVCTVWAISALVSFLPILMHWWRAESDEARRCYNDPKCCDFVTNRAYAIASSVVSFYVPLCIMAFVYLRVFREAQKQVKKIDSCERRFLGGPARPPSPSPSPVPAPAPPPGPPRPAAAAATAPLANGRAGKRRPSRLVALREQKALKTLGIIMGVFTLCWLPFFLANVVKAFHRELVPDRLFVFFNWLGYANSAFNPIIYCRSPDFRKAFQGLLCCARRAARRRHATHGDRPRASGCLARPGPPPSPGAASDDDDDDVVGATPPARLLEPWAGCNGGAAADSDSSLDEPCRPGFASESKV
T2 sequence (P07550 whole entry): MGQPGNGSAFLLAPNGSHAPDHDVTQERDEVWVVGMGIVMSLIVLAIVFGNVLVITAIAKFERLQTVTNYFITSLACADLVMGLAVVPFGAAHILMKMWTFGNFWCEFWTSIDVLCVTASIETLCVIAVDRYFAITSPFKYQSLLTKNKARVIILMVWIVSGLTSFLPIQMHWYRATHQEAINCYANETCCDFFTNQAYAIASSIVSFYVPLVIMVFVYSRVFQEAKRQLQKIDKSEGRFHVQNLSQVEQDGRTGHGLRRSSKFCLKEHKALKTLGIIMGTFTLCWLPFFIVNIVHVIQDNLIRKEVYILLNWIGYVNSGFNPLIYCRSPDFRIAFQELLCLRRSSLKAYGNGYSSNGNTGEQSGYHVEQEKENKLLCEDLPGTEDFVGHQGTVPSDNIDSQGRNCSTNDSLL

On to `CC(C)(C)NC[C@H](O)c1cccc(C(F)(F)F)n1` [Compound 03-3], for which the microsomal CLint in data set [1] was 3.48 µL/min/mg; in data set [2], 3.49 µL/min/mg; in data set [3], 7.99 µL/min/mg. In data set [4], this molecule displayed an AUClast of 546 ng·h/mL. The Vss_obs in data set [4] was determined as 2.92 L/kg.

Regarding `CC(C)(C)NC[C@H](O)c1cccc(C#N)n1` [Compound 03-5, (S)-6-(2-(tert-butylamino)-1-hydroxyethyl)picolinonitrile], the values for the microsomal CLint in data set [1], in data set [2] and in data set [3] were 2.53 µL/min/mg, 2.96 µL/min/mg and 4.32 µL/min/mg, respectively. In data set [4], this molecule gave a Vss_obs of 1.89 L/kg.

For the molecule `COc1ccc(C[C@@H](C)NC[C@H](O)c2ccc(C3CC3)nc2C)cc1` [Compound 03-269], the 50% effective concentration (EC50) is 10 to 100 nM in data set [5] and less than 10 nM in data set [6].

Values taken from patent US12448352B2, “Beta adrenergic agonist and methods of using the same” (Curasen Therapeutics, Inc., priority 2019, dated 2025).
